Series [1] deals with T1, eugenol synthase (EGS, EGS1) (Ocimum basilicum, UniProt Q15GI4). Kind of series: X-ray crystal structure ([…] Å monoclinic; also 2QX7 orthorhombic). The format is binding.
For series [2], the target named is T1, eugenol synthase (EGS, EGS1). Kind of series: X-ray crystal structure ([…] Å). The format is binding.
For series [3] the target is unchanged. Kind of series: X-ray co-crystal structure ([…] Å, soaking); enzyme inhibition kinetics (GC/MS). The format is biochemical.
Series [4] has as its target T2, eugenol synthase (EGS, EGS1) (Ocimum basilicum, UniProt Q15GI4, K132R).
T2 sequence (Q15GI4 1-314 K132R): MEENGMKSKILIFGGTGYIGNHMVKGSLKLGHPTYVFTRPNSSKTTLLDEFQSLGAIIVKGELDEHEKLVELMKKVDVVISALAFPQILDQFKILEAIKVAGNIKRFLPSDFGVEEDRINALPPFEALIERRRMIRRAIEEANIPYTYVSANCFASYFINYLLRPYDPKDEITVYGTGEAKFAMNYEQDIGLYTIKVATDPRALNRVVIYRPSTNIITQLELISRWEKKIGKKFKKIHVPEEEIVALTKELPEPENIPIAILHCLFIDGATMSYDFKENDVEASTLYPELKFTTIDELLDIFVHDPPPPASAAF
Kind of series: X-ray crystallography (preliminary structural analysis). The format is binding.

In series [5] the target is T3, eugenol synthase (EGS, EGS1) (Ocimum basilicum, UniProt Q15GI4, K132Q).
T3 sequence (Q15GI4 1-314 K132Q): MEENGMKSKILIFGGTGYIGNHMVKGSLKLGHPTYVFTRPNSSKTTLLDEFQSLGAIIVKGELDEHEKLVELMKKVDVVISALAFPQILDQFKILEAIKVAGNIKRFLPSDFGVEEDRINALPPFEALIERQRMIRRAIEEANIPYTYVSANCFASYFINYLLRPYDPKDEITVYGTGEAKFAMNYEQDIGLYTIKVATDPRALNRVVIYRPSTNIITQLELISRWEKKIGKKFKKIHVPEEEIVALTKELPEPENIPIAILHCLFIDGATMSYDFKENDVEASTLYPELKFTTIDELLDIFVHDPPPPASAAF
Kind of series: X-ray co-crystal structure ([…] Å). The format is binding.

Series [6] concerns the target T4, eugenol synthase (EGS, EGS1) (Ocimum basilicum, UniProt Q15GI4, K132A).
T4 sequence (Q15GI4 1-314 K132A): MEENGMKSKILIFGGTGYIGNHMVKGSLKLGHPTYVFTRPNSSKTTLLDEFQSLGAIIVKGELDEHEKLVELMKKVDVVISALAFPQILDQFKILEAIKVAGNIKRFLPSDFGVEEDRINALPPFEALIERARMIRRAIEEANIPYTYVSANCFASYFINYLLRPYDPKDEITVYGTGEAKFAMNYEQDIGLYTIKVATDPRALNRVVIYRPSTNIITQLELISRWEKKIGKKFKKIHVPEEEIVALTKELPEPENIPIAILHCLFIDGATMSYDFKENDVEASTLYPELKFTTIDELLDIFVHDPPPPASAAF
Kind of series: X-ray crystallography (no deposition stated). The format is binding.

Substrate in series [7]: COc1cc(/C=C/COC(C)=O)ccc1O
Kind of series: enzyme kinetics by GC/MS (Km); crystal soaking gave no stable complex. The format is biochemical, Ocimum basilicum. The conditions noted are these: NADPH active site (binding mode modeled only).

For the molecule `NC(=O)c1ccc[n+]([C@@H]2O[C@H](COP(=O)(O)OP(=O)(O)OC[C@H]3O[C@@H](n4cnc5c(N)ncnc54)[C@H](OP(=O)(O)O)[C@@H]3O)[C@@H](O)[C@H]2O)c1` [NADP+], the “X-ray crystal structure (1.6 Å monoclinic; also 2QX7 orthorhombic)” value in series [1] is recorded as “The structures of EGS complexed with NADP^+ or NADPH provide the first structural characterization of nicotinamide-cofactor binding”.

With `NC(=O)C1=CN([C@@H]2O[C@H](COP(=O)(O)OP(=O)(O)OC[C@H]3O[C@@H](n4cnc5c(N)ncnc54)[C@H](OP(=O)(O)O)[C@@H]3O)[C@@H](O)[C@H]2O)C=CC1` [NADPH], the “X-ray crystal structure (1.6 Å)” value in series [2] was “Structural differences between the NADP^+ and NADPH complexes of EGS are small, and center around the nicotinamide ring”.

On to `CCOC(=O)[C@H]1C[C@@H]1c1ccc(O)c(OC)c1` [EMDF, (1S,2S)-ethyl 2-(4-hydroxy-3-methoxyphenyl) cyclo-propanecarboxylate], for which the Ki in series [3] stood at 800 µM. Further, the “X-ray crystallography (preliminary structural analysis)” value in series [4] is recorded as “EMDF-bound forms of the Lys132Arg mutant shows that the Arg132 guanidinium moiety is displaced slightly by the EMDF guaiacol ring”. Further, in series [5], the “X-ray co-crystal structure (1.8 Å)” value was “for the Ala132 and Gln132 mutants, both NADP^+ and EMDF binding are little affected (Figure 5C)”. Further, the “X-ray crystallography (no deposition stated)” value in series [6] was “Crystallographic analyses confirmed that for the Ala132 and Gln132 mutants, both NADP^+ and EMDF binding are little affected”.

B1: eugenol synthase (EGS, EGS1) (Ocimum basilicum) (protein)
chain: MEENGMKSKILIFGGTGYIGNHMVKGSLKLGHPTYVFTRPNSSKTTLLDEFQSLGAIIVKGELDEHEKLVELMKKVDVVISALAFPQILDQFKILEAIKVAGNIKRFLPSDFGVEEDRINALPPFEALIERKRMIRRAIEEANIPYTYVSANCFASYFINYLLRPYDPKDEITVYGTGEAKFAMNYEQDIGLYTIKVATDPRALNRVVIYRPSTNIITQLELISRWEKKIGKKFKKIHVPEEEIVALTKELPEPENIPIAILHCLFIDGATMSYDFKENDVEASTLYPELKFTTIDELLDIFVHDPPPPASAAF
On to B1, for which the Km in series [7] was 570 µM.
